Target: T1, RebH variant 4V + S (Lentzea aerocolonigenes, UniProt Q8KHZ8, F111S/N470S, form not given)
T1 construct: evolved RebH variant 4V + S; pET28b in E. coli BL21(DE3) + pGro7, Ni-NTA purified (His-tagged)
Assay: initial rates of bromolactonization, product 1a by UPLC
Type: biochemical
Details: NaBr (5 eq), NAD and FAD 100 uM, MBP-RebF 2.5 uM, glucose dehydrogenase, glucose 20 mM; 4V + S 20 uM; room temperature

T1 sequence (Q8KHZ8 whole entry F111S/N470S, form open): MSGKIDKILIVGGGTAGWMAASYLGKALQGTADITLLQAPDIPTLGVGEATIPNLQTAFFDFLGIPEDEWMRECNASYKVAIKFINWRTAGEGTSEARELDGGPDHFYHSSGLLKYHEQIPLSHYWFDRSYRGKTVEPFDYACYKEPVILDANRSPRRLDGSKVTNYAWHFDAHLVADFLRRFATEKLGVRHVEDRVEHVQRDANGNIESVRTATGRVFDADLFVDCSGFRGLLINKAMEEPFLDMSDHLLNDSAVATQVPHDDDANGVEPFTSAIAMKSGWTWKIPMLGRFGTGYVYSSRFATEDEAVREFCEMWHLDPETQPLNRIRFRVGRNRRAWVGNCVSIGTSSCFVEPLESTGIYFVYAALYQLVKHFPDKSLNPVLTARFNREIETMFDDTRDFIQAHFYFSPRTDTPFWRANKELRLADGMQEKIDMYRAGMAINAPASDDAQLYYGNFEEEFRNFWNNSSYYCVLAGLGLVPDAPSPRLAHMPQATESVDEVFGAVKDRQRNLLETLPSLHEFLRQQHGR

In the case of `C=C(CCC(=O)O)c1ccc(OC)cc1` [compound 1, 4-methoxyphenyl-4-pentenoic acid], the Km is reported as 470 µM.
